Patent US7183317B2, “Compounds and methods to increase plasma HDL cholesterol levels and improve HDL functionality” (Atherogenics, Inc., priority 2004, dated 2007)
Where “and” joins values, the source holds several entries; their conditions need not be identical. Identical values can stand only once.

Experiments:
[1] = test system: HepG2 cells; test: apoAI-HDL elevation cell-based screen (apoAI accumulation by ELISA); set-up: species or system human; conditions: for increase of apoAI accumulation / circulating apoAI-HDL: 1 mM
Procedure: HepG2 cells were obtained from the American Type Culture Collection (Rockville, Md.). Fetal bovine serum (FBS) was purchased from Gibco Laboratories. Cells were cultured in minimum essential medium (MEM) containing 10% FBS, and 100 μg/mL of streptomycin, 100 unit/mL of penicillin, and 4 mM of glutamine (Gibco/BRL). Cells were grown for 2 days till they are 80% confluent in 6-well, or 12-well plates before studies. In all cases medium was changed every other day.
To measure apoAI, 96-well microtiter plates were coated with a 1:1000 diluted mixture of three monoclonal antibodies against human apoAI (A05, A17, and A44) for 2 h and incubated in succession with HDL3 (0 to 15 ng/well), sheep polyclonal anti-apoAI serum (Boehringer Mannheim), alkaline phosphatase-labeled rabbit anti-sheep (Cappel), and p-nitrophenyl phosphate (1 mg/mL in 10 mmol/L ethanolamine, 0.5 mmol/L MgCl2, pH 9.5), for 2, 1 and 1 h respectively at 37° C. The plates were washed three times between different incubations. The absorbance at 405 nm was determined by using a Bio-Rad model 550 microplate reader (Bio-Rad).
The effect of Compound A on apoAI-HDL elevation was measured using a cell-based screen assay. The hepatic model, HepG2 cells, was used to observe the accumulation of apoAI as a result of secretion and/or uptake of apoAI; both processes taking place in the liver. HepG2 cells were treated with compounds for 24 hours or 48 hours in DMEM containing 1% RSA. apoAI accumulation was measured by ELISA as described in Materials and Methods.

[2] = test system: SR-BI/II receptors; test: 3[H] CE delivery to HepG2 cells with anti SR-BI/II antibody blocking; assay type: cell-based
Procedure: It was important to discern whether or not Compound A was acting through the SR-BI/II receptors to increase the delivery of cholesterol. HepG2 cells were incubated with anti-mouse SR-BI/II antibodies for 45 min. Compound A was then added, and the cells were incubated with 30 μg/ml of ^3[H] CE-HDL for 3.5 h at 37° C. Anti-mouse SR-BI/II antibodies (1.0 mg/mL) reduced delivery of ^3[H] CE by 76%, while Compound A increase the delivery of ^3[H] CE to HepG2 cells by 56%. […] CE to cells provoked by Compound A. Further the anti SR-BI/II antibodies decreased the delivery of ^3[H] CE from 156% to 28% (FIG. 4).

[3] = test system: hypercholesterolemic hamsters; assay type: in vivo; conditions: two weeks; for percent increase of HDL cholesterol: 150 mg/kg/d in chow; for percent increase of HDL cholesterol / percent lowering of HDLc: compared to untreated controls
Description: Male Golden Syrian hamsters weighing 110–120 g were obtained from Charles River Laboratories (Wilmington, Mass.). Hamsters were housed individually with wood chip bedding and soft nesting material with lights on a 6 A.M. and off at 6 p.m. Upon arrival the hamsters were acclimated for three days on standard rodent chow and water (Purina rodent chow 5001) ad libitum. Prior to dosing, the hamsters were made hypercholesterolemic by feeding them a powdered diet supplemented with 0.5% cholesterol and 10% coconut oil (Harlan Teklad diet #97235) for one week. Water was added to the powdered chow to form a paste and the chow paste rolled into balls with each animal receiving 20 g of chow paste per day in stainless steel bowls. Chow intake was recorded daily. Body weights were recorded after one week and at the end of the end of the study. Hamsters were distributed into treatment groups after the one-week pretreatment period such that each group had similar average body weights.
Compound A homogenized in methylcellulose/Tween-20 using a polytron PT2100 homogenizer (Brinkman) before adding it to the high cholesterol chow paste and administered as an admixture at the same time each morning for two weeks. At the end of the treatment period the hamsters were fasted in the late afternoon on the day prior to blood collection. Fasting was achieved by transferring the hamsters to clean cages and removing chow stored in cheek pouches. Hamsters were anesthetized with ketamine/rompun solution. When unresponsive to toe pinch and still respiring, blood was collected via cardiac puncture from which plasma was separated and frozen at −80° C.
Lipoproteins were isolated from whole plasma by Fast Phase Liquid Chromatography (FPLC). Cholesterol and triglyceride concentrations in the different lipoprotein fractions were determined by enzymatic methods using a CX-5 chemical analyzer and standard Beckman reagents.
A Dunnetts test was used to compare the experimental and control groups. P<0.05 was considered significant.
The effect of Compound A on HDLc levels was assessed using hypercholesterolemic hamsters. Male Golden Syrian hamsters were fed as described in Materials and Methods. Compound A homogenized as described above before adding it to the high cholesterol chow paste and administered as an admixture at the same time each morning for two weeks. At the end of the treatment period the hamsters were fasted in the late afternoon on the day prior to blood collection. Hamsters were anesthetized with ketamine/rompun solution. When unresponsive to toe pinch and still respiring, blood was collected via cardiac puncture from which plasma was separated and frozen at −80° C.
LDL cholesterol was not affected. Lipid profiles were obtained according to the method published by Lee, A. and coworkers (W. Innis-Whitehouse, X. Li, V. Brown and N. Lee., J. Lipid Res. 39, 679 (1998)).

[4] = test system: HepG2 cells; test: Uptake/delivery of 3[H] cholesteryl ester-HDL to HepG2 cells; assay type: cell-based, human; conditions: 12.5 μM, 50 μg/ml 3[H] CE-HDL, 3.5 h, 37° C., vs 100% delivery without compound
Procedure: ^3[H]cholesteryl Hexadecyl Ether-labeled HDL was prepared as described by Rodrigueza et al. (Rodrigueza W. V. et al. (1999) J. Biol. Chem. 274:20344–20350). 40 μCi of ^3[H]hexadecyl ether (40–60 Ci/mmol, NEN life Sciences Products) were incubated with 5 mg of HDL3 and 240 mg of heat-inactivated lipoprotein-deficient plasma, 0.01% aprotinin in a polypropylene tube sealed with nitrogen gas for 40 h at 37° C. according to the method of Terpstra et al. ^3[H]-CE enriched HDL was re-isolated by flotation ultracentrifugation and dialyzed against phosphate-buffered saline (PBS). To perform CE uptake studies, HepG2 cells, seeded in 6 or 12 well plates were grown for 2 days till 80% confluent and, then treated with compounds in 1% RSA-DMEM medium for 24 h. The next day, cells were treated with 12.5 μM compounds and 50 μg/mL of ^3[H]-CE HDL for 3.5 h at 37° C. After incubation, cells were washed 4 times with PBS/BSA and 2 times with PBS, followed by addition of 0.1 N NAOH. Cells were collected, and radioactivity was measured in counts per minute and expressed as percent of ^3[H]-CE delivered to cells.
HepG2 cells were cultured as described above and incubated with 50 μg/ml of ^3[H] CE-HDL particles and compounds for 3.5 h at 37° C. […] CE delivery to HepG2 cells resulting from treatment with indicated compounds compared to a 100% delivery in the absence of any compound. […] CE, as also described by Jin et al. (Jin, F. et al. (1997) Atheroscler. Thromb Vasc Biol. 17: 2020–2028).

[5] = test system: HDL holoprotein; test: Hepatic clearance/uptake of HDL holoprotein; assay type: cell-based
Description: The trichloroacetic-precipitable labeled apoAI-HDL in the conditioned medium represents degraded labeled apoAI-HDL. After washing and detaching, cells are centrifuged. Labeled apoAI-HDL in the cellular fraction represents internalized HDL holoprotein; whereas, label in the supernatant represents cell surface bound apoAI-HDL that has been dissociated. Increased amounts of labeled HDL in cells treated with compounds versus cells not treated with compounds indicates increased degradation, internalization, or binding to the cell surface. Compounds are selected which decrease the amount of apoAI-HDL label in the cellular fraction of the cells contacted with a test compound compared to the amount of label in the cellular fraction of the cells not contacted with the test compound. […] Label in the conditioned medium represents degraded labeled-HDL. After washing and detaching, cells are centrifuged. Label in the cellular fraction represents internalized HDL holoprotein; whereas, label in the supernatant represents cell surface bound apoAI-HDL that has been dissociated. Increased amounts of label in cells treated with compounds versus cells not treated with compounds indicates increased degradation, internalization, or binding of apoAI-HDL to the cell surface. […]

[6] = test system: apoAI; test: apoAI synthesis; assay type: cell-based
[7] = 12.5 μM, compared to control (absence of compounds)

CC(C)(Sc1cc(C(C)(C)C)c(O)c(C(C)(C)C)c1)Sc1cc(C(C)(C)C)c(OCCCCOS(=O)(=O)O)c(C(C)(C)C)c1 [B, Sulfuric acid, mono-(4-{2,6-di-tert-butyl-4-[1-(3,5-di-tert-butyl-4-hydroxy-phenyl-sulfanyl)-1-methylethylsulfanyl]-phenoxy}-butyl)ester]
percent increase of apoAI (apoAI-HDL) accumulation [1, 7]: ~30%

CC(C)(Sc1cc(C(C)(C)C)c(O)c(C(C)(C)C)c1)Sc1cc(C(C)(C)C)c(OC[C@@H](O)[C@@H](O)[C@@H](O)C(=O)O)c(C(C)(C)C)c1 [Compound A, 5-[4-[1-[(3,5-bis(1,1-dimethylethyl)-4-hydroxyphenyl)thio]-1-methylethyl]thio-2,6-bis(1,1-dimethylethyl)phenoxy]-2(R),3(R),4(R)-trihydroxypentanoic acid]
percent increase of 3[H]CE delivery to HepG2 cells ([2]; 30 μg/ml 3[H] CE-HDL, 3.5 h, 37° C., no antibody): 56%
delivery of 3[H] CE, percent of control ([2]; Compound A in presence of anti SR-BI/II antibodies): 28%
delivery of 3[H] CE, percent of control ([2]; Compound A without antibodies): 156%
percent increase of apoAI (apoAI-HDL) accumulation [1, 7]: 122.5% and 122%
percent increase of apoAI (apoAI-HDL) accumulation ([1]; 25 μM, compared to control): 132.5% and 132%
percent increase of HDL cholesterol [3]: 30%
effect on LDL cholesterol ([3]; 150 mg/kg/d): not affected
percent increase of 3[H]CE delivery to HepG2 cells [4]: 109% and 108%

CC(C)(Sc1cc(C(C)(C)C)c(O)c(C(C)(C)C)c1)Sc1cc(C(C)(C)C)c(OCC(O)CNCC(=O)O)c(C(C)(C)C)c1 (centres unmarked) [Compound C, Glycine, N-[3-[4-[1-[[3,5-bis(1,1-dimethylethyl)-4-hydroxyphenyl]thio]-methylethyl]thio-2,6-bis(1,1-dimethylethyl)phenoxy]-2-hydroxypropyl]]
percent increase of apoAI (apoAI-HDL) accumulation [1, 7]: ~15%
percent increase of HDL cholesterol [3]: 40%

CC(C)(Sc1cc(C(C)(C)C)c(O)c(C(C)(C)C)c1)Sc1cc(C(C)(C)C)c(OC[C@H]2OC(O)[C@H](O)[C@@H](O)[C@@H]2O)c(C(C)(C)C)c1 (some centres unmarked) [Compound D]
percent decrease of apoAI (apoAI-HDL) accumulation ([1]; 12.5 μM, compared to control): about 10%
percent lowering of HDLc ([3]; 150 mg/kg/d): ~80%

CC(C)(Sc1cc(C(C)(C)C)c(O)c(C(C)(C)C)c1)Sc1cc(C(C)(C)C)c(OC[C@@H](O)[C@H](O)[C@H](O)[C@H](O)CO)c(C(C)(C)C)c1 [Compound E]
percent decrease of apoAI (apoAI-HDL) accumulation ([1]; 12.5 μM, compared to control): about 10%
percent lowering of HDLc ([3]; 150 mg/kg/d): ~40%

O=C(O)c1cccnc1 [Niacin, Nicotinic acid, reference compound]
increase of apoAI accumulation / circulating apoAI-HDL [1]: increased
increase of apoAI accumulation / circulating apoAI-HDL ([1]; listed as niacin): 10%

CC(C)(Sc1cc(C(C)(C)C)c(O)c(C(C)(C)C)c1)Sc1cc(C(C)(C)C)c(O)c(C(C)(C)C)c1 [Probucol, 4,4′-(isopropylidenedithio)bis(2,6-di-tert-butylphenol), reference compound]
percent decrease of apoAI (apoAI-HDL) accumulation ([1]; 12.5 μM, compared to control): 23%
percent increase of 3[H]CE delivery to HepG2 cells [4]: 29%
percent increase of 3[H]CE delivery to HepG2 cells ([4]; listed as probucol): increased
HDL holoprotein uptake [5]: reduced
effect on synthesis of apoAI (newly synthesized apoAI) [6]: reduced

CC1=C(/C=C/C(C)=C/C=C/C(C)=C/C(=O)O)C(C)(C)CCC1 [Retinoic acid, reference compound]
percent increase of apoAI accumulation ([1]; 10 μM, positive control): 53.6%
